Laboratory results as given in the supplement of paper PMC6045584.
± gives the standard deviation of the averaged measurements.

Columns and labels:
[1] = compound: CC/C(=C(\c1ccc(O)cc1)c1ccc(OCCN(C)C)cc1)c1ccccc1 [AFIMOXIFENE]; assay: surviving fraction relative to DMSO-only wells; higher = less growth inhibition; conditions: exposure time: 5 days
Outline: (§1)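 A line counted only if its three screens reached replicate Pearson r >0.7 and median Z' >0.3. Tumour cells in log phase were seeded at 250–500 per well in 384-well plates and, after 24 hours, kept in continuous contact with inhibitors at 0.5, 1, 5, 10, 50, 100, 500 and 1000 nM for five days. Surviving fraction was taken from CellTiter-Glo luminescence relative to the median of DMSO-only wells.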

[2] = compound: COc1cc2nccc(Oc3ccc(NC(=O)C4(C(=O)Nc5ccc(F)cc5)CC4)cc3)c2cc1OC [CABOZANTINIB]; assay: as above; conditions: exposure time: 5 days
Outline: as §1

Test System: HOSMNG BONE
- surviving fraction ([1]; 0.5 nM): 0.922 ± 0.073
- surviving fraction ([1]; 1 nM): 0.948 ± 0.032
- surviving fraction ([1]; 5 nM): 0.996 ± 0.083
- surviving fraction ([1]; 10 nM): 0.963 ± 0.038
- surviving fraction ([1]; 50 nM): 1.1 ± 0.017
- surviving fraction ([1]; 100 nM): 1.06 ± 0.032
- surviving fraction ([1]; 500 nM): 1.07 ± 0.077
- surviving fraction ([1]; 1000 nM): 1.03 ± 0.078
- surviving fraction ([2]; 0.5 nM): 0.961 ± 0.061
- surviving fraction ([2]; 1 nM): 0.984 ± 0.053
- surviving fraction ([2]; 5 nM): 0.885 ± 0.036
- surviving fraction ([2]; 10 nM): 0.913 ± 0.1
- surviving fraction ([2]; 50 nM): 0.833 ± 0.038
- surviving fraction ([2]; 100 nM): 0.839 ± 0.018
- surviving fraction ([2]; 500 nM): 0.314 ± 0.0085
- surviving fraction ([2]; 1000 nM): 0.274 ± 0.011

Test System: HSSYII SYNOVIAL
- surviving fraction ([1]; 0.5 nM): 0.993 ± 0.029
- surviving fraction ([1]; 1 nM): 1.04 ± 0.021
- surviving fraction ([1]; 5 nM): 0.989 ± 0.075
- surviving fraction ([1]; 10 nM): 1.02 ± 0.055
- surviving fraction ([1]; 50 nM): 1.01 ± 0.035
- surviving fraction ([1]; 100 nM): 0.993 ± 0.046
- surviving fraction ([1]; 500 nM): 0.921 ± 0.07
- surviving fraction ([1]; 1000 nM): 0.968 ± 0.05
- surviving fraction ([2]; 0.5 nM): 0.909 ± 0.022
- surviving fraction ([2]; 1 nM): 0.927 ± 0.067
- surviving fraction ([2]; 5 nM): 0.935 ± 0.048
- surviving fraction ([2]; 10 nM): 0.923 ± 0.025
- surviving fraction ([2]; 50 nM): 0.963 ± 0.071
- surviving fraction ([2]; 100 nM): 0.888 ± 0.014
- surviving fraction ([2]; 500 nM): 0.787 ± 0.0083
- surviving fraction ([2]; 1000 nM): 0.671 ± 0.043

Test System: HT1080 SOFT TISSUE
- surviving fraction ([1]; 0.5 nM): 1.07 ± 0.035
- surviving fraction ([1]; 1 nM): 1.08 ± 0.018
- surviving fraction ([1]; 5 nM): 1.08 ± 0.037
- surviving fraction ([1]; 10 nM): 1.04 ± 0.018
- surviving fraction ([1]; 50 nM): 1.01 ± 0.039
- surviving fraction ([1]; 100 nM): 1.04 ± 0.023
- surviving fraction ([1]; 500 nM): 1.07 ± 0.042
- surviving fraction ([1]; 1000 nM): 1.06 ± 0.035
- surviving fraction ([2]; 0.5 nM): 1.05 ± 0.025
- surviving fraction ([2]; 1 nM): 0.999 ± 0.021
- surviving fraction ([2]; 5 nM): 1.01 ± 0.021
- surviving fraction ([2]; 10 nM): 1.03 ± 0.013
- surviving fraction ([2]; 50 nM): 1.01 ± 0.022
- surviving fraction ([2]; 100 nM): 1.01 ± 0.014
- surviving fraction ([2]; 500 nM): 0.973 ± 0.0017
- surviving fraction ([2]; 1000 nM): 0.965 ± 0.033

Test System: HU09 BONE
- surviving fraction ([1]; 0.5 nM): 1 ± 0.069
- surviving fraction ([1]; 1 nM): 0.969 ± 0.057
- surviving fraction ([1]; 5 nM): 1.02 ± 0.077
- surviving fraction ([1]; 10 nM): 1.21 ± 0.1
- surviving fraction ([1]; 50 nM): 1.13 ± 0.08
- surviving fraction ([1]; 100 nM): 1.04 ± 0.065
- surviving fraction ([1]; 500 nM): 0.971 ± 0.083
- surviving fraction ([1]; 1000 nM): 0.945 ± 0.038
- surviving fraction ([2]; 0.5 nM): 0.945 ± 0.084
- surviving fraction ([2]; 1 nM): 0.999 ± 0.11
- surviving fraction ([2]; 5 nM): 0.978 ± 0.055
- surviving fraction ([2]; 10 nM): 1.02 ± 0.13
- surviving fraction ([2]; 50 nM): 0.885 ± 0.096
- surviving fraction ([2]; 100 nM): 0.638 ± 0.06
- surviving fraction ([2]; 500 nM): 0.452 ± 0.043
- surviving fraction ([2]; 1000 nM): 0.338 ± 0.034

Test System: HUO3N1 BONE
- surviving fraction ([1]; 0.5 nM): 1.06 ± 0.046
- surviving fraction ([1]; 1 nM): 1.03 ± 0.038
- surviving fraction ([1]; 5 nM): 1.1 ± 0.065
- surviving fraction ([1]; 10 nM): 1.09 ± 0.029
- surviving fraction ([1]; 50 nM): 1.12 ± 0.057
- surviving fraction ([1]; 100 nM): 1.06 ± 0.043
- surviving fraction ([1]; 500 nM): 0.932 ± 0.074
- surviving fraction ([1]; 1000 nM): 0.849 ± 0.033
- surviving fraction ([2]; 0.5 nM): 1.05 ± 0.034
- surviving fraction ([2]; 1 nM): 1.05 ± 0.066
- surviving fraction ([2]; 5 nM): 1.02 ± 0.025
- surviving fraction ([2]; 10 nM): 0.953 ± 0.0036
- surviving fraction ([2]; 50 nM): 0.916 ± 0.014
- surviving fraction ([2]; 100 nM): 0.861 ± 0.021
- surviving fraction ([2]; 500 nM): 0.742 ± 0.07
- surviving fraction ([2]; 1000 nM): 0.666 ± 0.008
